In the kinase profiling compilation of Christmann-Franck et al. (2016):

Columns and labels:
Experiment in all cases: radiometric filter-binding kinase assay, Kinase HotSpot
Details in all cases: compound 0.5 µM; ATP 10 µM
NEK6 (human) = NEK6 (human) (UniProt Q9HC98)
STK24 (human) = STK24 (human) (UniProt Q9Y6E0)
PLK1 (human) = PLK1 (human) (UniProt P53350)
GSG2 (human) = GSG2 (human) (UniProt Q8TF76)
HIPK2 (human) = HIPK2 (human) (UniProt Q9H2X6)
RPS6KA6 KD1 KD2 (human) = RPS6KA6 KD1 KD2 (human) (UniProt Q9UK32)
Chain of RPS6KA6 KD1 KD2 (human) (Q9UK32 whole entry, looked up): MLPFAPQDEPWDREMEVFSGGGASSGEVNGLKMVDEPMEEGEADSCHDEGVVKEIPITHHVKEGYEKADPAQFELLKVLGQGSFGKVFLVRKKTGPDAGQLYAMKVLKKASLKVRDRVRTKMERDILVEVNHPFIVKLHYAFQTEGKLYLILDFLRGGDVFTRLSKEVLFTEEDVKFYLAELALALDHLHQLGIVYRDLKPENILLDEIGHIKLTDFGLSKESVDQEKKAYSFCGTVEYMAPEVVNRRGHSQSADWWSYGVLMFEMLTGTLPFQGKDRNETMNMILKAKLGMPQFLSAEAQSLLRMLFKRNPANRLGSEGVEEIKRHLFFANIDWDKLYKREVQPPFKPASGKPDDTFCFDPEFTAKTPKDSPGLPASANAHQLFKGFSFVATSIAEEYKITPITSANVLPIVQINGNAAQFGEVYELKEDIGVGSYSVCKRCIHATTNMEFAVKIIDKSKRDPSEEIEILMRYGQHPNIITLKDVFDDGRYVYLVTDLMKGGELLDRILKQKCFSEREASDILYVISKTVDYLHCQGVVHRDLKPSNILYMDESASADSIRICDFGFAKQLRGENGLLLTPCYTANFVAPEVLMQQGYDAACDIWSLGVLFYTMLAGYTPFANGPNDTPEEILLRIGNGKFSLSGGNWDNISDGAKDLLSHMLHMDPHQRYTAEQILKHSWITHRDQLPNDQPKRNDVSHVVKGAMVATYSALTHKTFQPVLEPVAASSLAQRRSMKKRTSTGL

WNK2 (human) = WNK2 (human) (UniProt Q9Y3S1)
Chain of WNK2 (human) (Q9Y3S1 whole entry, looked up): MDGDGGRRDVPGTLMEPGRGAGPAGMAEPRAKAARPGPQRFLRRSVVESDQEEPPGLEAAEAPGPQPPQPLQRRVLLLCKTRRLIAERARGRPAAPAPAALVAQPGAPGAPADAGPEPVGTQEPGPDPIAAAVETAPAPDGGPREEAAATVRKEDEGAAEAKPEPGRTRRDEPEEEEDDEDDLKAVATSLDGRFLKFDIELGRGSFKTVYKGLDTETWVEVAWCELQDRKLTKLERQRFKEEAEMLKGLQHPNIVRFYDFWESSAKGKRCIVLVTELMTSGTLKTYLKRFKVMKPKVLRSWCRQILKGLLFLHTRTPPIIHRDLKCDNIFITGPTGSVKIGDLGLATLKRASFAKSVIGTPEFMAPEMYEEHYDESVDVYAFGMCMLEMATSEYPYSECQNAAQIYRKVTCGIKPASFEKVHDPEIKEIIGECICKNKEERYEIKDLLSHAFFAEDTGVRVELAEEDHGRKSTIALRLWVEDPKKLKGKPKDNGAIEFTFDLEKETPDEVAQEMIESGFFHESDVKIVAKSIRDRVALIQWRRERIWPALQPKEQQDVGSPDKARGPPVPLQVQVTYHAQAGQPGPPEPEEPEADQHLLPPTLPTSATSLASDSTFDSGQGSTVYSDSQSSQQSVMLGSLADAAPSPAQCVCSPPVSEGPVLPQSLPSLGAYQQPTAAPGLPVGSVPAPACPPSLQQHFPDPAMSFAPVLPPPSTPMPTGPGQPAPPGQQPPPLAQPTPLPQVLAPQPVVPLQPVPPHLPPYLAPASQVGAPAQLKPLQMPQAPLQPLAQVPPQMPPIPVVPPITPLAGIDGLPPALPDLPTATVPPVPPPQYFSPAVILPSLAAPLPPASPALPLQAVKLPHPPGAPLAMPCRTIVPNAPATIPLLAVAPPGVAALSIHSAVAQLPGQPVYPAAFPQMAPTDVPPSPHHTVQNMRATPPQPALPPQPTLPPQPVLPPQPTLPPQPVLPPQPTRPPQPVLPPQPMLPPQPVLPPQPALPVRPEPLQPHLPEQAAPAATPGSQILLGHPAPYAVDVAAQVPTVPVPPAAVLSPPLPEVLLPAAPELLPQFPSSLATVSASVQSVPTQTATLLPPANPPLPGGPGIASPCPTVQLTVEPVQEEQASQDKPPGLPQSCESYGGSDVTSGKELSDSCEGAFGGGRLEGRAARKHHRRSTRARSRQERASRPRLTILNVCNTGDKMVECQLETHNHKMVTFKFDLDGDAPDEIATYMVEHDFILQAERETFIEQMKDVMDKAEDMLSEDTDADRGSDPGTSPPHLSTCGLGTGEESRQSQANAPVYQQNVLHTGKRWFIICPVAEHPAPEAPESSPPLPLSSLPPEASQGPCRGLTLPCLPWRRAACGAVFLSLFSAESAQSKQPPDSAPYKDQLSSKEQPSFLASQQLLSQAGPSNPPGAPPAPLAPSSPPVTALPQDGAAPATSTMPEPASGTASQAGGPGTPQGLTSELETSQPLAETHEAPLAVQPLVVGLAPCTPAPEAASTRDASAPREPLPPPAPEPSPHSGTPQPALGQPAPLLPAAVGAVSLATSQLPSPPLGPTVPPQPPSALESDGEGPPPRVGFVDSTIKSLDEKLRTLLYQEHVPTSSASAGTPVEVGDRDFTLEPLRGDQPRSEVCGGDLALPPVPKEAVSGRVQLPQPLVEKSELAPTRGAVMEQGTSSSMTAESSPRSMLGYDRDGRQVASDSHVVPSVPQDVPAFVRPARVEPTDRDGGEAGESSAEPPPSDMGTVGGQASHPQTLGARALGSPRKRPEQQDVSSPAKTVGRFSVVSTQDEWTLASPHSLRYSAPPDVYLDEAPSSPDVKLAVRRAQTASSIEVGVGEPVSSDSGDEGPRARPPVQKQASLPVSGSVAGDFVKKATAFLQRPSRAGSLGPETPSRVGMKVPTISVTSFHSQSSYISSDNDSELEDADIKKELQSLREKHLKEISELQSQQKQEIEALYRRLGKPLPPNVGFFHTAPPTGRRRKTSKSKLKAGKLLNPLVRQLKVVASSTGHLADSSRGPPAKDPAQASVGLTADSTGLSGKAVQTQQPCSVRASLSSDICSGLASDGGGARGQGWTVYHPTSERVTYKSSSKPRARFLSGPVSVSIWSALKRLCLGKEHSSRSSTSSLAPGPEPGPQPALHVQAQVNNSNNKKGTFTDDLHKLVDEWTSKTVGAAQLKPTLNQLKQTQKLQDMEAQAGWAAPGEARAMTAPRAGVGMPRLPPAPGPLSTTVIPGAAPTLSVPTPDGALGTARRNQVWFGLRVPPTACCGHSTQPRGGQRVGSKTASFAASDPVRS

TXK (human) = TXK (human) (UniProt P42681)
Chain of TXK (human) (P42681 whole entry, looked up): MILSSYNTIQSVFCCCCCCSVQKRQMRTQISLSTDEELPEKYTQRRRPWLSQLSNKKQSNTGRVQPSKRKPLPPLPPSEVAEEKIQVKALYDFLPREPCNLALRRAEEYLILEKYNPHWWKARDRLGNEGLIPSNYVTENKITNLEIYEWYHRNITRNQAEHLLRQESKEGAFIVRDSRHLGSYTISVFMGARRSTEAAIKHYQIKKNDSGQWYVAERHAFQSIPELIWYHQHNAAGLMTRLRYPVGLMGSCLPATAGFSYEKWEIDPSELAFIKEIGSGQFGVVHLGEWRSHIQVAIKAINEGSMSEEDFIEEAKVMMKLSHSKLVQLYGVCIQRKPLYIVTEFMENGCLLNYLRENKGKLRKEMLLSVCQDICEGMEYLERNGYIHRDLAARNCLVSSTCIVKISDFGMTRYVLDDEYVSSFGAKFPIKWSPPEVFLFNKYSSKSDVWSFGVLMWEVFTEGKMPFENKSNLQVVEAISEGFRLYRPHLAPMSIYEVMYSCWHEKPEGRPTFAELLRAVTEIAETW

MAP2K1 (human) = MAP2K1 (human) (UniProt Q02750)
RPS6KB2 (human) = RPS6KB2 (human) (UniProt Q9UBS0)
DCLK2 (human) = DCLK2 (human) (UniProt Q8N568)
STK4 (human) = STK4 (human) (UniProt Q13043)
BMX (human) = BMX (human) (UniProt P51813)
PLK3 (human) = PLK3 (human) (UniProt Q9H4B4)
ITK (human) = ITK (human) (UniProt Q08881)
Chain of ITK (human) (Q08881 whole entry, looked up): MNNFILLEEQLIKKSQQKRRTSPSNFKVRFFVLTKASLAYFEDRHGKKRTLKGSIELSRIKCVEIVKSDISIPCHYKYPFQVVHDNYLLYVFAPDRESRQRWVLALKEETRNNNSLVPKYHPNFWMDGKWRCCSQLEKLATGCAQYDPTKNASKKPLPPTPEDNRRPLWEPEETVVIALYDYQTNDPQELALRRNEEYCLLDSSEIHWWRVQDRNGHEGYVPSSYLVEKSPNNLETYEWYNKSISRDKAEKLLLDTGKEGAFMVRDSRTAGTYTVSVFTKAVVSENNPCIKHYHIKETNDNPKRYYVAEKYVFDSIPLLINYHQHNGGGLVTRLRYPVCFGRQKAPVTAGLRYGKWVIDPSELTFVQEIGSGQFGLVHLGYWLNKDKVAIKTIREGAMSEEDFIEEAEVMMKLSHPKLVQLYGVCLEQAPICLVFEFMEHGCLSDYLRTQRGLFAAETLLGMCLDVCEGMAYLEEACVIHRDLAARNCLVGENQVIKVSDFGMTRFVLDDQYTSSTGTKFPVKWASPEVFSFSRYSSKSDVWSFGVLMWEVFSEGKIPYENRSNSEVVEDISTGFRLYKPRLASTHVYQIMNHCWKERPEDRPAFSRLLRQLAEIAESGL

YES1 (human) = YES1 (human) (UniProt P07947)
CDC42BPB (human) = CDC42BPB (human) (UniProt Q9Y5S2)
KDR (human) = KDR (human) (UniProt P35968)
CLK4 (human) = CLK4 (human) (UniProt Q9HAZ1)
ERBB2 (human) = ERBB2 (human) (UniProt P04626)
CDK9 CCNK (human) = CDK9 CCNK (human) (UniProt O75909+P50750)
AURKA (human) = AURKA (human) (UniProt O14965)
Chain of AURKA (human) (O14965 whole entry, looked up): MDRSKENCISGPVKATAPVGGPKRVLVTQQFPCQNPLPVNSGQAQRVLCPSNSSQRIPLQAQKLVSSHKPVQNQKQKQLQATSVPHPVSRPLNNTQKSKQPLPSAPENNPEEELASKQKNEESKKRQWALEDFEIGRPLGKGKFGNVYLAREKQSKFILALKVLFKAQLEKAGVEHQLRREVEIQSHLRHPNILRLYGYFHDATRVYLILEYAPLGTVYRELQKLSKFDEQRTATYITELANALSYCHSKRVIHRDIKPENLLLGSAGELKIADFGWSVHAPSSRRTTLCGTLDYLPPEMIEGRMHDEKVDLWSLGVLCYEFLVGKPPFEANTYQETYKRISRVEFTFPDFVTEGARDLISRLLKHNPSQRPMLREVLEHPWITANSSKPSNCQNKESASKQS

MAP3K9 (human) = MAP3K9 (human) (UniProt P80192)
CSNK1D (human) = CSNK1D (human) (UniProt P48730)
Chain of CSNK1D (human) (P48730 whole entry, looked up): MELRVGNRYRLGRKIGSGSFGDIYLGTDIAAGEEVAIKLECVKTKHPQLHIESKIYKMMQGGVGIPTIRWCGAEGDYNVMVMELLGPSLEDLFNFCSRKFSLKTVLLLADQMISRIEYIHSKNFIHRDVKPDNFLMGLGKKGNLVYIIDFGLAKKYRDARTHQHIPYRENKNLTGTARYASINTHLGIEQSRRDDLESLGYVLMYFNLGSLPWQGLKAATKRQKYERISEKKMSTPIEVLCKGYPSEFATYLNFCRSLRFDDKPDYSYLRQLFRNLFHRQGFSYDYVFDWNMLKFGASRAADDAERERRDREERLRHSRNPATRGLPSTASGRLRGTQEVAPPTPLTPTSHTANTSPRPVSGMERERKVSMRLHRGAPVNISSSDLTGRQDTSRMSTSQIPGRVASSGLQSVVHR

DSTYK (human) = DSTYK (human) (UniProt Q6XUX3)
FES (human) = FES (human) (UniProt P07332)
HCK (human) = HCK (human) (UniProt P08631)
PRKACA (human) = PRKACA (human) (UniProt P17612)
PRKCA (human) = PRKCA (human) (UniProt P17252)
SRC (human) = SRC (human) (UniProt P12931)
DAPK1 (human) = DAPK1 (human) (UniProt P53355)
BTK (human) = BTK (human) (UniProt Q06187)
MARK3 (human) = MARK3 (human) (UniProt P27448)
PRKCB1 (human) = PRKCB1 (human) (UniProt P05771)
FGR (human) = FGR (human) (UniProt P09769)
WEE1 (human) = WEE1 (human) (UniProt P30291)
MST4 (human) = MST4 (human) (UniProt Q9P289)
PTK2B (human) = PTK2B (human) (UniProt Q14289)
FGFR3 (human) = FGFR3 (human) (UniProt P22607)
DYRK2 (human) = DYRK2 (human) (UniProt Q92630)
EPHA5 (human) = EPHA5 (human) (UniProt P54756)
SRPK3 (human) = SRPK3 (human) (UniProt Q9UPE1)

Compound: O=C1NC(=O)C(c2c[nH]c3ccccc23)=C1c1c[nH]c2ccccc12
- residual activity (NEK6 (human)): 101%
- residual activity (STK24 (human)): 61.5%
- residual activity (PLK1 (human)): 94.5%
- residual activity (GSG2 (human)): 84.7%
- residual activity (HIPK2 (human)): 104%
- residual activity (RPS6KA6 KD1 KD2 (human)): 19.2%
- residual activity (WNK2 (human)): 92.7%
- residual activity (TXK (human)): 101%
- residual activity (MAP2K1 (human)): 95.8%
- residual activity (RPS6KB2 (human)): 94.6%
- residual activity (DCLK2 (human)): 89.3%
- residual activity (STK4 (human)): 61.8%
- residual activity (BMX (human)): 100%
- residual activity (PLK3 (human)): 99.9%
- residual activity (ITK (human)): 102%
- residual activity (YES1 (human)): 88.4%
- residual activity (CDC42BPB (human)): 99%
- residual activity (KDR (human)): 60.8%
- residual activity (CLK4 (human)): 76.1%
- residual activity (ERBB2 (human)): 94.3%
- residual activity (CDK9 CCNK (human)): 80%
- residual activity (AURKA (human)): 108%
- residual activity (MAP3K9 (human)): 55.4%
- residual activity (CSNK1D (human)): 95.7%
- residual activity (DSTYK (human)): 99.6%
- residual activity (FES (human)): 99.8%
- residual activity (HCK (human)): 96%
- residual activity (PRKACA (human)): 101%
- residual activity (PRKCA (human)): 27.7%
- residual activity (SRC (human)): 93.7%
- residual activity (DAPK1 (human)): 79.4%
- residual activity (BTK (human)): 98.2%
- residual activity (MARK3 (human)): 98.5%
- residual activity (PRKCB1 (human)): 26.1%
- residual activity (FGR (human)): 88.5%
- residual activity (WEE1 (human)): 98.1%
- residual activity (MST4 (human)): 59.2%
- residual activity (PTK2B (human)): 95.6%
- residual activity (FGFR3 (human)): 70.7%
- residual activity (DYRK2 (human)): 97.7%
- residual activity (EPHA5 (human)): 95.3%
- residual activity (SRPK3 (human)): 90%
